Measured values as given in patent US11959083B2, “Immunosuppression-reverting oligonucleotides inhibiting the expression of CD39” (Secarna Pharmaceuticals GmbH & Co. KG, priority 2016, dated 2024).
l = locked nucleic acid (LNA); d = 2'-deoxy (DNA)

What was measured:
Assay type in all cases: cell-based, human
[1] = test system: hCD39 mRNA; assay: IC50 determination / concentration-dependent hCD39 mRNA knockdown in HDLM-2 cells; conditions: for mRNA inhibition: HDLM-2, 3 days; for IC50: HDLM-2 cells, hCD39 mRNA, 3 days
Experimental: HDLM-2 cells were treated for 3 days with the indicated concentration of the respective antisense oligonucleotide. Residual hCD39 expression is depicted compared to untreated control cells. hCD39 mRNA expression values were normalized to expression of the housekeeping gene HPRT1.
The antisense oligonucleotide A04040H (SEQ ID No. 3) that had shown potent activity in the first and second screening round was used as reference. HDLM-2 cells treated for 3 days with the indicated concentrations of the respective antisense oligonucleotide. hCD39 mRNA expression values were normalized to expression of the housekeeping gene HPRT1. Residual hCD39 mRNA expression relative to untreated cells (set as 100) is depicted. Depicted is the mean of triplicate wells+/−SD.
In a second experiment the concentration-dependency of effects and the IC50 values of hCD39 antisense oligonucleotides A04010H (SEQ ID No.14), A04016H (SEQ ID No.20), A04017H (SEQ ID No.21), A04020H (SEQ ID No. 24) and A04026H (SEQ ID No.30) were tested. […] HDLM-2 cells were treated with titrated amounts of the respective antisense oligonucleotide (concentrations: 10 μM, 3.3 μM, 1.1 μM, 370 nM, 120 nM, 41 nM, 14 nM, 4.5 nM). hCD39 mRNA expression was analyzed after three days of treatment. FIG. 5 and Table 9 depicts the concentration-dependent reduction of hCD39 mRNA expression by the selected hCD39 antisense oligonucleotides.
The hCD39 antisense oligonucleotides A04051H (SEQ ID No.88), A04052H (SEQ ID No.89), A04053H ([…]), A04056H (SEQ ID No.92), A04059H (SEQ ID No.94), A04060H (SEQ ID No.95), and A04061H (SEQ ID No.96) had shown potent single-dose activity in both HDLM-2 and A-172 cells. […] The antisense oligonucleotide A04040H that had shown potent activity in the first screening round was used as reference. hCD39 mRNA expression was analyzed after 3 days of treatment. FIG. 7 depicts the concentration-dependent reduction of hCD39 expression by hCD39 antisense oligonucleotides.

[2] = test system: hCD39 mRNA; assay: hCD39 mRNA knockdown efficacy screen in HDLM-2 cells (single dose, gymnotic delivery, QuantiGene Singleplex); conditions: 10 μM, 3 days; for Mean hCD39 mRNA expression normalized to HPRT1 relative to untreated control = 1: first screening round; for Relative hCD39 mRNA expression (compared to non-treated cells): second screening round, normalized to HPRT1; for Residual hCD39 mRNA expression relative to untreated cells (set as 1): third screening round
Outline: (§1)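 Antisense oligonucleotides given once at 10 μM without transfection reagent (gymnotic) to HDLM-2 or A-172 cells for 3 days. hCD39 mRNA measured by QuantiGene Singleplex, normalized to HPRT1 and expressed relative to untreated cells; triplicate means.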

[3] = test system: hCD39 mRNA; assay: hCD39 mRNA knockdown efficacy screen in A-172 cells (single dose, gymnotic delivery, QuantiGene Singleplex); conditions: 10 μM, 3 days; for Mean hCD39 mRNA expression (relative to untreated cells set as 1): first screening round; for Mean hCD39 mRNA expression (relative to untreated cells set as 1) / Relative hCD39 mRNA expression (compared to non-treated cells): normalized to HPRT1; for Relative hCD39 mRNA expression (compared to non-treated cells): second screening round; for Residual hCD39 mRNA expression relative to untreated cells (set as 1): third screening round
Outline: as §1

[4] = second screening round (Table 9)
[5] = third screening round (Table 12)

| Substance | mRNA inhibition ([1]; 0.0045 μM, Table 9) [%] | mRNA inhibition ([1]; 0.013 μM, Table 9) [%] | mRNA inhibition ([1]; 0.04 μM, Table 9) [%] | mRNA inhibition ([1]; 0.12 μM, Table 9) [%] | mRNA inhibition ([1]; 0.4 μM, Table 9) [%] | mRNA inhibition ([1]; 1.1 μM, Table 9) [%] | mRNA inhibition ([1]; 3.3 μM, Table 9) [%] | mRNA inhibition ([1]; 10 μM, Table 9) [%] | IC50 [1, 4] [nM] | Mean hCD39 mRNA expression normalized to HPRT1 relative to untreated control = 1 [2] | Relative hCD39 mRNA expression (compared to non-treated cells) [2] | Mean hCD39 mRNA expression (relative to untreated cells set as 1) [3] | Relative hCD39 mRNA expression (compared to non-treated cells) [3] | mRNA inhibition ([1]; 0.45 nM, Table 12) [%] | mRNA inhibition ([1]; 1.3 nM, Table 12) [%] | mRNA inhibition ([1]; 4 nM, Table 12) [%] | mRNA inhibition ([1]; 12 nM, Table 12) [%] | mRNA inhibition ([1]; 40 nM, Table 12) [%] | mRNA inhibition ([1]; 110 nM, Table 12) [%] | mRNA inhibition ([1]; 330 nM, Table 12) [%] | further results |
| --- | --- | --- | --- | --- | --- | --- | --- | --- | --- | --- | --- | --- | --- | --- | --- | --- | --- | --- | --- | --- | --- |
| +C*+T*+T*G*A*A*C*A*C*T*G*C*+G*+A*+T (antisense CTTGAACACTGCGAT; sugars from the 5' end l3 d9 l3, all phosphorothioate, methylation of C not given here) [A04017H] | 33.85 | 49.62 | 62.92 | 79.03 | 91.63 | 97.05 | 98.95 | 99.37 | 33.1 | 0.11 | 0.11 | 0.11 | 0.11 |  |  |  |  |  |  |  |  |
| +G*+A*+T*A*G*T*T*T*C*C*A*A*T*+A*+C*+C (antisense GATAGTTTCCAATACC; sugars from the 5' end l3 d10 l3, all phosphorothioate, methylation of C not given here) [A04026H] | 29.98 | 29.02 | 54.32 | 77.36 | 92.99 | 96.69 | 99.20 | 98.59 | 61.5 | 0.03 | 0.03 | 0.07 | 0.08 |  |  |  |  |  |  |  |  |
| +G*+A*G*T*G*C*C*T*G*A*T*C*C*+T*+T (antisense GAGTGCCTGATCCTT; sugars from the 5' end l2 d11 l2, all phosphorothioate, methylation of C not given here) [A04010H] | 20.11 | 24.68 | 52.80 | 76.16 | 90.86 | 95.99 | 98.10 | 98.77 | 51.6 | 0.17 | 0.15 | 0.10 | 0.11 |  |  |  |  |  |  |  |  |
| +G*+G*+T*T*T*G*T*G*T*G*A*G*A*G*C*+T (antisense GGTTTGTGTGAGAGCT; sugars from the 5' end l3 d12 l1, all phosphorothioate, methylation of C not given here) [A04060H] |  |  |  |  |  |  |  |  |  |  |  |  |  | 0.00 | 0.00 | 0.00 | 0.00 | 49.14 | 88.34 | 96.71 | mRNA inhibition ([1]; 1000 nM, Table 12): 97.82%; IC50 [1, 5]: 20.5 nM; Residual hCD39 mRNA expression relative to untreated cells (set as 1) [2]: 0.01; Residual hCD39 mRNA expression relative to untreated cells (set as 1) [3]: 0.08 |
| +G*+G*+T*T*T*G*T*G*T*G*A*G*A*G*C*+T*+T (antisense GGTTTGTGTGAGAGCTT; sugars from the 5' end l3 d12 l2, all phosphorothioate, methylation of C not given here) [A04059H] |  |  |  |  |  |  |  |  |  |  |  |  |  | 1.21 | 0.00 | 0.00 | 12.94 | 72.06 | 91.84 | 97.46 | mRNA inhibition ([1]; 1000 nM, Table 12): 98.31%; IC50 [1, 5]: 18.3 nM; Residual hCD39 mRNA expression relative to untreated cells (set as 1) [2]: 0.01; Residual hCD39 mRNA expression relative to untreated cells (set as 1) [3]: 0.09 |
